What was measured:
[1] = molecular target: T1, Urokinase-type plasminogen activator (Homo sapiens, UniProt P00749); test: Compound was tested for the rate constant of deacylation against the enzyme Urokinase-type plasminogen activator; conditions: read-out: koff (s-1)
[2] = molecular target: T1, Urokinase-type plasminogen activator; test: Compound was tested for the rate constant of deacylation against Urokinase-type plasminogen activator
[3] = molecular target: T1, Urokinase-type plasminogen activator; test: Compound was tested for the rate constant of deacylation against Urokinase-type plasminogen activator
Serine protease 1 = molecular target: T2, Serine protease 1 (Bos taurus, UniProt P00760); test: Compound was tested for the rate constant of deacylation against the enzyme trypsin
T2 sequence (P00760 whole entry): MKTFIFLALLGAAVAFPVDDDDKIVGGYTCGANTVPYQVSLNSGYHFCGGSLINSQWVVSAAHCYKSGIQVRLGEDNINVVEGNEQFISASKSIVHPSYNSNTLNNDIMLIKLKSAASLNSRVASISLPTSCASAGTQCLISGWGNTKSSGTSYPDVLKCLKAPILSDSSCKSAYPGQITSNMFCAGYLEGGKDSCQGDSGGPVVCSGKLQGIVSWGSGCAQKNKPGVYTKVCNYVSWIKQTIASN

| koff [1] | koff [2] | koff [3] | koff (Serine protease 1) | Structure (SMILES) |
| --- | --- | --- | --- | --- |
| 1.3e-05 s⁻¹ | 1.3e-05 s⁻¹ |  |  | NC(N)=Nc1ccc(C2C/C(=C/I)OC(=O)C2NC(=O)c2ccccc2)cc1 (stereo not given) |
|  |  | 3.3e-05 s⁻¹ | 0.00025 s⁻¹ | C=C1CC(c2ccc(N=C(N)N)cc2)C(NC(=O)c2ccccc2)C(=O)O1 (stereo not given) |
|  |  |  | 0.00033 s⁻¹ | NC(N)=Nc1ccc(C2CC(=O)O/C(=C\I)C2)cc1 (stereo not given) |
